# Reference: US9044463B2, “FSH receptor antagonists” (Merck Sharp & Dohme B.V., priority 2011, dated 2015)
# Biological target: T1, human FSH receptor (Homo sapiens, UniProt P23945)
# T1 construct: expressed in transfected cells; host or cells: CHO (Chinese Hamster Ovary) cells, stably transfected; cotransfected with a CRE-luciferase reporter
# T1 sequence (P23945 18-695): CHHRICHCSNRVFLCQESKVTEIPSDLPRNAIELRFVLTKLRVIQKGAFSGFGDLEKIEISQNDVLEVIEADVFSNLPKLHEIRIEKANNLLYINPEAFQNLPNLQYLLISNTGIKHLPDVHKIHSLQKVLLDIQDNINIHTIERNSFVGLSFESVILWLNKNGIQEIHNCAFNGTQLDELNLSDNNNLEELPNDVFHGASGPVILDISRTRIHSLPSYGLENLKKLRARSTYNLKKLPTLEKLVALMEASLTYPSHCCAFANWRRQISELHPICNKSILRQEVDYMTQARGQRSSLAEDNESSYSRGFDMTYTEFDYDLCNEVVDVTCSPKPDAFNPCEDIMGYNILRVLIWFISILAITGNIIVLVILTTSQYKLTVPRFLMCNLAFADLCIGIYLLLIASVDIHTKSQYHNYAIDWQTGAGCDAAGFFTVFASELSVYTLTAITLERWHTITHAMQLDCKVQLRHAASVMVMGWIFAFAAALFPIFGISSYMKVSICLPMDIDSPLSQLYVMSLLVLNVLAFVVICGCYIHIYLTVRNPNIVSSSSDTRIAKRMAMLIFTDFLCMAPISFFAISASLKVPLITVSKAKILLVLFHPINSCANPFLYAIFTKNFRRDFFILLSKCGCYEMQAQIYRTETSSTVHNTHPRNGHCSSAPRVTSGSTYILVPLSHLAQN
# Experiment: Antagonistic activity at the human FSH receptor expressed in CHO cells (CRE-luciferase reporter)
# Format: cell-based
# Settings: CHO cells stably transfected with human FSH receptor and CRE-luciferase; with 49 μM recFSH; 4 hours incubation; read-out: IC50 (inhibition of recFSH-induced luciferase stimulation)
# Protocol: Antagonistic Activity of Compounds at the Human FSH Receptor Expressed in CHO Cells
# Antagonistic activity of the compounds at the human FSH receptor was determined in Chinese Hamster Ovary (CHO) cells stably transfected with the human FSH receptor and cotransfected to with a cAMP responsive element (CRE)/promoter directing the expression of a firefly luciferase reporter gene. Binding of the compounds to the Gs protein-coupled FSH receptor will result in an increase of cAMP, which in turn will induce an increased transactivation of the luciferase reporter. The cells (7,500 cells/well of a 384 well plate) were incubated in Dulbecco′ minimal essential F12 modified medium (Invitrogen), supplemented with 1 μg/ml bovine insulin, 5 μg/ml human apo-transferrin, 100 U/ml penicillin G and 100 μg/ml streptomycin with the test compounds (concentration between 0.316 nM and 10.0 μM) in duplicate together with […] recFSH (which, at this concentration in the absence of test compound, induces 80% of the maximal luciferase stimulation) in a humidified atmosphere (95%) at 5-7% CO2 and 37° C. The final concentration of DMSO was 1%. After 4 hours of incubation, plates were allowed to adjust to room temperature for 1 hour. Then, SteadyLite (PerkinElmer) solution was added to the wells and cells were allowed to lyse for at least 1 hour at room temperature. Subsequently, luciferase activity was measured in a luminescence counter. The signal is expressed as counts per second (cps). The IC50 (concentration of test compound causing half-maximal (50%) inhibition of the maximally attainable inhibition of the luciferase stimulation by the compound) and efficacy of the compounds were determined using the software program MathIQ (version 2.3, ID Business Solutions Limited).
row,SMILES,IC50
1,"C=CCOc1cc2c(cc1OC)CCc1cc(-c3ccccc3F)c(C(=O)N[C@@H](CO)Cc3c[nH]c4ccccc34)cc1-2 [Example 29, 6-(allyloxy)-2-(2-fluorophenyl)-N—((R)-1-hydroxy-3-(1H-indol-3-yl)propan-2-yl)-7-methoxy-9,10-dihydrophenanthrene-3-carboxamide]",< 100 nM
2,"COc1cc2c(cc1OC(C)C)COc1cc(-c3ccccc3F)c(C(=O)N[C@@H](CO)Cc3c[nH]c4ccccc34)cc1-2 [Example 43, 3-(2-fluorophenyl)-N—((R)-1-hydroxy-3-(1H-indol-3-yl)propan-2-yl)-8-isopropoxy-9-methoxy-6H-benzo[c]chromene-2-carboxamide]",< 100 nM
3,"CC(C)Oc1cc2c(cc1C(=O)N[C@@H](CO)Cc1c[nH]c3ccccc13)-c1cc3c(cc1CO2)OCO3 [Example 35, (R)—N-(1-hydroxy-3-(1H-indol-3-yl)propan-2-yl)-3-isopropoxy-8,9-(1′,3′-dioxolo)-6H-benzo[c]chromene-2-carboxamide]",100 to 1000 nM
4,"COc1cc2c(cc1O)COc1cc(-c3ccccc3F)c(C(=O)N[C@@H](CO)Cc3c[nH]c4ccccc34)cc1-2 [Example 44, 3-(2-fluorophenyl)-8-hydroxy-N—((R)-1-hydroxy-3-(1H-indol-3-yl)propan-2-yl)-9-methoxy-6H-benzo[c]chromene-2-carboxamide]",< 100 nM
5,"COc1cc2c(cc1OC)-c1cc(C(=O)N[C@@H](CO)Cc3c[nH]c4ccccc34)c(C(C)=C(C)C)cc1CC2 [Example 22, (R)—N-(1-hydroxy-3-(1H-indol-3-yl)propan-2-yl)-6,7-dimethoxy-2-(3-methylbut-2-en-2-yl)-9,10-dihydrophenanthrene-3-carboxamide]",< 100 nM
6,"COc1cc2c(cc1OC)-c1cc(C(=O)N[C@@H](CO)Cc3c[nH]c4ccccc34)c(-c3ccccc3)cc1OC2 [Example 40, (R)—N-(1-hydroxy-3-(1H-indol-3-yl)propan-2-yl)-8,9-dimethoxy-3-phenyl-6H-benzo[c]chromene-2-carboxamide]",< 100 nM
7,"COc1cc2c(cc1OC)-c1cc(C(=O)N[C@@H](CO)Cc3c[nH]c4ccccc34)c(OC(C)C#N)cc1CC2 (stereo partly drawn) [Example 12, 2-(1-cyanoethoxy)-N—((R)-1-hydroxy-3-(1H-indol-3-yl)propan-2-yl)-6,7-dimethoxy-9,10-dihydrophenanthrene-3-carboxamide]",100 to 1000 nM
8,"COc1cc2c(cc1OC)-c1cc(C(=O)N[C@@H](CO)Cc3c[nH]c4ccccc34)c(-c3ccc(Cl)s3)cc1CC2 [Example 23, (R)-2-(5-chlorothiophen-2-yl)-N-(1-hydroxy-3-(1H-indol-3-yl)propan-2-yl)-6,7-dimethoxy-9,10-dihydrophenanthrene-3-carboxamide]",< 100 nM
9,"C=CCOc1cc2c(cc1OC)-c1cc(C(=O)N[C@@H](CO)Cc3c[nH]c4ccccc34)c(-c3ccccc3F)cc1CC2 [Example 28, 7-(allyloxy)-2-(2-fluorophenyl)-N—((R)-1-hydroxy-3-(1H-indol-3-yl)propan-2-yl)-6-methoxy-9,10-dihydrophenanthrene-3-carboxamide]",< 100 nM
10,"COc1cc2c(cc1OC)-c1cc(C(=O)N[C@@H](CO)Cc3c[nH]c4ccccc34)c(-c3sccc3C)cc1OC2 [Example 39, N—((R)-1-hydroxy-3-(1H-indol-3-yl)propan-2-yl)-8,9-dimethoxy-3-(3-methylthiophen-2-yl)-6H-benzo[c]chromene-2-carboxamide]",< 100 nM
11,"COCCOc1cc2c(cc1C(=O)N[C@@H](CO)Cc1c[nH]c3ccccc13)-c1cc(OC)c(OC)cc1CC2 [Example 15, (R)—N-(1-hydroxy-3-(1H-indol-3-yl)propan-2-yl)-6,7-dimethoxy-2-(2-methoxyethoxy)-9,10-dihydrophenanthrene-3-carboxamide]",100 to 1000 nM
12,"COc1cc2c(cc1OC)-c1cc(C(=O)N[C@@H](CO)Cc3c[nH]c4ccccc34)c(C=C(C)C)cc1OC2 [Example 41, (R)—N-(1-hydroxy-3-(1H-indol-3-yl)propan-2-yl)-8,9-dimethoxy-3(2-methylprop-1-enyl)-6H-benzo[c]chromene-2-carboxamide]",< 100 nM
13,"COc1cc2c(cc1OC)-c1cc(C(=O)N[C@@H](CO)Cc3c[nH]c4ccccc34)c(OC3CCCC3)cc1CC2 [Example 9, (R)-2-(cyclopentyloxy)-N-(1-hydroxy-3-(1H-indol-3-yl)propan-2-yl)-6,7-dimethoxy-9,10-dihydrophenanthrene-3-carboxamide]",< 100 nM
14,"COc1cc2c(cc1OC)-c1cc(C(=O)N[C@@H](CO)Cc3c[nH]c4ccccc34)c(-c3c(F)cc(O)cc3F)cc1CC2 [Example 19, (R)-2-(2,6-difluoro-4-hydroxyphenyl)-N-(1-hydroxy-3-(1H-indol-3-yl)propan-2-yl)-6,7-dimethoxy-9,10-dihydrophenanthrene-3-carboxamide]",< 100 nM

# More lines, now with the values ahead:
row,IC50,SMILES
1,< 100 nM,"COc1cc2c(cc1OCCN(C)C)COc1cc(-c3ccccc3F)c(C(=O)N[C@@H](CO)Cc3c[nH]c4ccccc34)cc1-2 [Example 48, 8-(2-(dimethylamino)ethoxy)-3-(2-fluorophenyl)-N—((R)-1-hydroxy-3-(1H-indol-3-yl)propan-2-yl)-9-methoxy-6H-benzo[c]chromene-2-carboxamide]"
2,< 100 nM,"C=CCOc1cc2c(cc1OC)-c1cc(C(=O)N[C@@H](CO)Cc3c[nH]c4ccccc34)c(-c3ccccc3F)cc1OC2 [Example 46, 8-(allyloxy)-3-(2-fluorophenyl)-N—((R)-1-hydroxy-3-(1H-indol-3-yl)propan-2-yl)-9-methoxy-6H-benzo[c]chromene-2-carboxamide]"
3,< 100 nM,"COc1cc2c(cc1-c1ccncc1)COc1cc(-c3ccccc3F)c(C(=O)N[C@@H](CO)Cc3c[nH]c4ccccc34)cc1-2 [Example 52, 3-(2-fluorophenyl)-N—((R)-1-hydroxy-3-(1H-indol-3-yl)propan-2-yl)-9-methoxy-8-(pyridin-4)-6H-benzo[c]chromene-2-carboxamide]"
4,< 100 nM,"COc1cc2c(cc1-c1cccnc1)COc1cc(-c3ccccc3F)c(C(=O)N[C@@H](CO)Cc3c[nH]c4ccccc34)cc1-2 [Example 50, 3-(2-fluorophenyl)-N—((R)-1-hydroxy-3-(1H-indol-3-yl)propan-2-yl)-9-methoxy-8-(pyridin-3-v)-6H-benzo[c]chromene-2-carboxamide]"
5,< 100 nM,"COc1cc2c(cc1OCC1CC1)COc1cc(-c3ccccc3F)c(C(=O)N[C@@H](CO)Cc3c[nH]c4ccccc34)cc1-2 [Example 49, 8-(cyclopropylmethoxy)-3-(2-fluorophenyl)-N—((R)-1-hydroxy-3-(1H-indol-3-yl)propan-2-yl)-9-s methoxy-6H-benzo[c]chromene-2-carboxamide]"
6,< 100 nM,"COc1cc2c(cc1OCCO)COc1cc(-c3ccccc3F)c(C(=O)N[C@@H](CO)Cc3c[nH]c4ccccc34)cc1-2 [Example 47, 3-(2-fluorophenyl)-N—((R)-1-hydroxy-3-(1H-indol-3-yl)propan-2-yl)-8-(2-hydroxyethoxy)-9-methoxy-6H-benzo[c]chromene-2-carboxamide]"
7,< 100 nM,"CN(C)C(=O)c1ccc2c(c1)COc1cc(-c3ccccc3F)c(C(=O)N[C@@H](CO)Cc3c[nH]c4ccccc34)cc1-2 [Example 54, 3-(2-fluorophenyl)-N2-((R)-1-hydroxy-3-(1H-indol-3-yl)propan-2-yl)-N8,N8-dimethyl-6H-benzo[c]chromene-2,8-dicarboxamide]"
